The subject of one data set is wild-type astrocytes. As to the kind of experiment: single-cell Fluo4 [Ca^2+]i imaging in wild-type astrocytes. It counts as cell-based, mouse. As to the method:
(§1) Astrocytes cultures. Primary astrocyte cultures (>99% GFAP-positive) were prepared from the spinal cord of newborn mice (hSOD1^G93A or wild-type littermates). Once the cultures reached the confluence, they were replated at the optimal density either in 24-well plates or 35-mm Petri dishes containing glass coverslips and maintained in Minimal Essential Medium (MEM, GIBCO) supplemented with 10% foetal bovine serum (FBS, Sigma-Aldrich).
(§2) [Ca^2+]i imaging. ASTROCYTES were plated (2.5×10^4 cells/35 mm Petri dish) on glass coverslips and used 2-3 days later as already shown. Before imaging, cells were loaded with 5 μM Fluo4-AM (Molecular Probes) for 15-20 min. at 37° C. in a HEPES-KRH buffer containing (in mM): NaCl 116, KCl 4, MgCl2 1, CaCl2 1.8, HEPES-acid 10, glucose 25 (pH 7.4) and then allowed to de-esterify for 10 min. After several washes, coverslips were mounted in an open perfusion micro-incubator (PDMI-2, Harvard Apparatus) set at 37° C. on the stage of the optical recording microscope. During experiments, cells were continuously perfused with HEPES-KRH (1 ml/min), and 100 μM DHPG was applied via a software-controlled micro-perfusion fast-step device (100 μl/min, Warner Instrument Corp.) A Zeiss Axiovert 200 inverted fluorescence microscope was modified to allow EPI illumination (Visitron Systems). Fluo4 fluorescence was recorded through a 63× or 40× objectives lens (Zeiss, Neofluar 63×/1.25 Oil, Neofluar 40×/1.3 Oil) and directed through a Zeiss filter set 10 (BP 450-490; BP 515-565) at 200- or 400 ms of intervals by imaging with excitation light at 488 nm generated by a polychromator illumination system (Visichrome, Visitron). Video images, digitized with MetaFluor, were analyzed with MetaMorph software (Universal Imaging). Temporal dynamics of Fluo4 fluorescence have been expressed as background-subtracted ΔF/F0(%), where F0 represents the fluorescence level of the cells before stimulation, and F represents the change in fluorescence occurring during the stimulus.
(§3) [Ca^2+]i imaging. The measurements of [Ca^2+]i were performed as described in Example 2. Briefly, cells were loaded with 5 μM Fluo4-AM and then allowed to de-esterify for 10 min.
(§4) After several washes, coverslips were mounted in an open perfusion micro-incubator set at 37° C. on the stage of the optical recording microscope. During experiments, cells were continuously perfused with HEPES-KRH (1 ml/min), and 0.5 μM TAT-BH4 was applied 30 min. before adding 100 μM DHPG via a software-controlled micro-perfusion fast-step device (100 μl/min, Warner Instrument Corp.).

A further data set has as its system astrocyte cultures. The experiment in a line: astrocyte toxicity assay, staurosporine challenge (nuclear condensation). It counts as cell-based, mouse. As to the method: (§5) Pharmacological treatments in vitro. To assess the ability of TAT-BH4 to penetrate into cells, astrocytes (8×10^4 cells/well) were plated in 24-well plates containing glass coverslips. Cultures were treated with 10 μg/ml Hoechst 33342 (Sigma) for 15 min., quickly washed and incubated with 0.5 μM TAT-BH4 (TAT^48-57 conjugated to the BH4 domain of Bcl-XL) either unconjugated or conjugated with 5(6)-carboxyfluorescein (FAM, Primm srl) for 30 min. Peptides in excess were subsequently removed, cells were washed and immediately fixed (methanol:acetone 1:1 for 10 min.) or maintained in culture for 24 hrs and then fixed. The presence of the peptides inside the cells was evaluated by a digital camera (DFC 310 FX, Leica Microsystem) mounted on a DM5000 B microscope (Leica Microsystem) and analysed by Leica Application Suite 3.5.0 software. […]
(§6) Astrocyte toxicity assays. The toxic effect of DHPG or staurosporine on cultured astrocytes was determined by double staining with the fluorescent nuclear dye Hoechst 33342 and anti-active caspase-3 immunocytochemistry using a rabbit polyclonal antibody (1:50, Cell Signalling Technology). The number of astrocytes showing condensed nuclei and activated caspase-3 24 hrs after the pharmacological challenge was counted by two independent operators in a blind manner. […]

Data set [1] has as its system hSOD1^G93A-expressing astrocytes. The experiment in a line: cytochrome c release (co-localization of Cyt c with SOD2). The conditions noted are these: DHPG 100 μM. It counts as cell-based, mouse. As to the method: Pharmacological treatments in vitro. To assess the ability of TAT-BH4 to penetrate into cells, astrocytes (8×10^4 cells/well) were plated in 24-well plates containing glass coverslips. Cultures were treated with 10 μg/ml Hoechst 33342 (Sigma) for 15 min., quickly washed and incubated with 0.5 μM TAT-BH4 (TAT^48-57 conjugated to the BH4 domain of Bcl-XL) either unconjugated or conjugated with 5(6)-carboxyfluorescein (FAM, Primm srl) for 30 min. Peptides in excess were subsequently removed, cells were washed and immediately fixed (methanol:acetone 1:1 for 10 min.) or maintained in culture for 24 hrs and then fixed. The presence of the peptides inside the cells was evaluated by a digital camera (DFC 310 FX, Leica Microsystem) mounted on a DM5000 B microscope (Leica Microsystem) and analysed by Leica Application Suite 3.5.0 software. To test the protective efficacy of TAT-BH4, astrocytes in culture were pre-exposed to different concentrations of the peptide (0.1 and/or 0.5 μM, 30 min.), washed and then treated with DHPG (100 μM, 30 min., Tocris Cookson Ltd.) or staurosporine (1 μM, 6 hrs, Sigma-Aldrich). After removal of DHPG, astrocytes were allowed to recover at 37° C. for 24 hrs.
Cytochrome c release. […] Cytochrome c release from mitochondria was determined by its co-localization with the mitochondrial protein SOD2 using JACoP plug-in ImageJ. […]

Data set [2] shares this test system. As to the kind of experiment: single-cell Fluo4 [Ca^2+]i imaging in hSOD1^G93A-expressing astrocytes. It counts as cell-based, mouse. As to the method: as §1, §2, §3, §4
Data set [3] shares this test system. As to the kind of experiment: astrocyte toxicity assay, DHPG challenge (nuclear condensation, active caspase-3). It counts as cell-based, mouse. As to the method:
as §5, §6

For data set [4], the system named is hSOD1^G93A mice. As to the kind of experiment: histopathological analysis of spinal cord of treated hSOD1^G93A mice. It counts as in vivo, mouse. The conditions noted are these: 5 mg/kg i.p. daily. The source says: Tissue preparation and immunohistological analysis. For mouse tissue preparation, the spine was taken and immersed in 4% buffered paraformaldehyde for 24 hrs; spinal cord was extracted, the lumbar tract was removed and either paraffin embedded or cryoprotected in 30% sucrose before freezing. For human tissue preparation, spinal cord was removed and 0.5 cm thick slices were taken from the cervical (C7), thoracic (T4 and T8) and lumbar (L1) levels. Slices were fixed in 10% buffered formalin and embedded in paraffin. Mouse or human spinal cords were sectioned at 5-10 μm and used to perform different immunostainings. On selected sections, the following primary antibodies were used: GFAP (mouse monoclonal antibody, 1:50, Dako), CD11b (rat monoclonal antibody, 1:500, Serotec), mGluR5 (rabbit polyclonal antibody, 1:100, MBL International Corporation); active caspase-3 (rabbit polyclonal antibody, 1:50, Cell Signalling Technology). For active caspase-3 immunostaining, a Tyramide Amplification System kit was used (Perkin Elmer, Inc.). For histopathological analysis, serial sections were either immunostained for GFAP/active caspase-3 or treated with 0.5% cresyl violet (Sigma Aldrich) to detect motor neuron Nissl substance. GFAP/active caspase-3 positive astrocytes and motor neurons were counted for a total of 9 disectors using an unbiased stereologic physical disector technique. Z-axis image stacks (z-step size: 0.5 μm) were collected to generate three-dimensional data sets of spinal cord sections on an MRC 1024 Bio-Rad confocal microscope with a 63× Plan Neofluar NA1,25 oil-immersion objective in condition of optimal iris diameter as defined by LaserSharp 2000 software. Quantitative analysis of punctuate mGluR5, GFAP or CD11 b stainings was performed on confocal acquired images (1024×1024 pixels) of the spinal cord ventral horns from both wild-type and SOD1^G93A animals using ImageJ software (National Institutes of Health). After establishing an intensity threshold, the software calculated the percentage of area occupied by mGluR5, GFAP or CD11b staining by dividing the area of immunopositivity by the total area.
(§7) Pharmacological treatment in vivo. hSOD1^G93A mice were administrated daily 5 mg/kg TAT-BH4 peptide in PBS containing 10% glycerol or vehicle alone (PBS plus 10% glycerol) intraperitoneally starting at the age of 40 days (n=14 mice for each condition). Mice were thereafter kept under daily observation and weighted twice a week. Age of disease onset was retrospectively determined as the time when mice reached the peak in the body weight. Motor performance was assessed twice a week by rotarod test starting at the age of 50 days. Briefly, animals were place on an accelerating rod (Ugo Basile) and the time each mouse remained on the rod was recorded. The average of three independent trials per session was used for further analysis of the data. End stage was defined as the time in which animals were unable to right themselves within 30 seconds when placed on their side.

Data set [5] relates to hSOD1^G93A mice. The experiment in a line: chronic treatment of hSOD1^G93A mice: disease onset, rotarod, survival. The conditions noted are these: 5 mg/kg i.p. daily from age 40 days. It counts as in vivo, mouse. As to the method:
Transgenic mice. Transgenic mice expressing human SOD1^G93A (B6SJL-TgN(SOD1-G93A)1Gur were purchased from The Jackson Laboratories. The colonies were maintained by breeding hemizygote males to wild-type C57BI6/SJL F1 hybrid females. Offspring were genotyped and used for subsequent studies. Animal procedures were approved by the Italian Ministry of Health.
as §7
Statistics. Data are represented as mean±s.e.m. and statistical significance is verified using GraphPad Prism software. Unpaired or paired 2-tailed t-test was used for comparisons between two groups; one-way or two-way analysis of variance (ANOVA) followed by Bonferroni post-hoc test was used for comparisons of multiple groups; repeated measures two-way ANOVA was used for behavioral test; the Logrank test was used for disease onset and survival analysis.

[6] abbreviates: TAT-BH4 0.5 μM 30 min before STS 1 μM.
The mark [7] stands for this setting: TAT-BH4 0.5 μM 30 min before DHPG 100 μM.

The text below walks through data of US8778884B2, “Glioprotectant peptide for use in the treatment of amyotrophic lateral sclerosis (ALS) and methods related thereto” (Fondazione Salvatore Maugeri Clinica del Lavora e Della …, priority 2011, dated 2014).

Values joined by “and” are separate entries in the source; they are usually repeats but may differ in a detail not shown here. Equal values may be shown once. “Also recorded” adds a separate entry of the source.

As for `CN[C@@H]1C[C@H]2O[C@@](C)([C@@H]1OC)n1c3ccccc3c3c4c(c5c6ccccc6n2c5c31)C(=O)NC4` [STS, staurosporine, reference compound], in the data set on wild-type astrocytes (STS 1 μM), the “amplitude of [Ca^2+]i plateau” value is recorded as 3.52±0.22 ΔF/F0 and the “time to plateau of long-lasting calcium rise” value was in the range of 75 to 80 min. In the data set with astrocyte cultures (STS 1 μM, 6 h), the “percentage of cells with nuclear condensation, effect of STS” value was “caused an increment in the percentage of cells with nuclear condensation”.

Take `NC(C(=O)O)c1cc(O)cc(O)c1` (racemic) [DHPG, (RS)-3,5-dihydroxyphenylglycine, reference compound]: in the data set on wild-type astrocytes (DHPG 100 μM), the “average [Ca^2+]i oscillation frequency” value is given as 17±2.5 mHz and the “peak amplitude of initial DHPG-evoked [Ca^2+]i transient” value is 0.27±0.18 ΔF/F0. Also, the “mitochondria and cytochrome c, effect of DHPG” value in data set [1] is “causes mitochondrial disarrangement and release of cytochrome c”. In data set [2] (DHPG 100 μM), the “change of initial [Ca^2+]i transient (ΔF/F0) with respect to wild-type cells” value is reported as −63%, the “peak amplitude of initial DHPG-evoked [Ca^2+]i transient” value is given as 0.1±0.08 ΔF/F0 and the “time to plateau of long-lasting [Ca^2+]i rise” value is recorded as “about 10 min”. Besides, the “percentage of astrocytes with nuclear condensation and caspase-3 activation, effect of DHPG” value in data set [3] (DHPG 100 μM, compared with wild-type cells) is reported as “induces an increment”.

As to “H2N-GRKKRRQRRRGGSNRELVVDFLSYKLSQKGYS-COOH (H-GRKKRRQRRRGGSNRELVVDFLSYKLSQKGYS-OH) [TAT-BH4, BH4 domain of Bcl-XL fused via GG to the protein transduction domain of the HIV TAT protein]”, in the data set on wild-type astrocytes (setting [6]), the “change of persistent [Ca^2+]i rise evoked by STS, with respect to STS alone” value is reported as −72% and the “effect on [Ca^2+]i oscillations in STS-treated cells” value is “restored [Ca^2+]i oscillations; also recorded: re-establishment of [Ca^2+]i oscillations”. In the data set on wild-type astrocytes (TAT-BH4 0.5 μM, 30 min), the “[Ca^2+]i response to local application of the peptide alone” value is “immediate [Ca^2+]i rise followed by sustained [Ca^2+]i oscillations”. In the data set on hSOD1^G93A mice [4] (n=18 fields from three mice), the CD11b-immunopositive microglial cells is listed as 1040.7±20.4 cells/mm^2 and the “GFAP-positive astrocytes in spinal ventral horns” value came out at 917.9±33.1 cells/mm^2. For the same molecule, in the data set on hSOD1^G93A mice [4] (100 day-old mice), the “change in number of spheroid astrocytes immunopositive for active caspase-3, with respect to saline-treated mice” value is reported as −74%; the “number of caspase-3-positive cells compared to saline” value was “significantly lower”; the “number of motor neurons in spinal cord” value is “preservation of a greater number of motor neurons”. The “cells with nuclear condensation (apoptotic cells) after STS, effect of peptide” value with astrocyte cultures (TAT-BH4 0.1 or 0.5 μM 30 min pre-incubation, STS 1 μM 6 h) is given as “reduced the number of apoptotic cells in a dose-dependent manner; also recorded: potently inhibited in a dose-dependent fashion”. Moreover, in data set [1] (TAT-BH4 0.5 μM 30 min pre-treatment), the “release of cytochrome c / co-localization of Cyt c and SOD2 after DHPG, effect of peptide” value is “restores the complete co-localization of the two proteins; also recorded: significant reduction”. Besides, in data set [2] (setting [7]), the “average [Ca^2+]i oscillation frequency after DHPG” value turned out to be 14±3.1 mHz; the “percentage of cells in which DHPG evokes a single [Ca^2+]i transient followed by sustained [Ca^2+]i oscillations (pattern as in wild-type)” value is 100% and 99%. Also, the “[Ca^2+]i response to local application of the peptide alone” value in data set [2] (TAT-BH4 0.5 μM, 30 min) is “immediate [Ca^2+]i rise followed by sustained [Ca^2+]i oscillations”. In the data set with hSOD1^G93A mice [5], the “extension of life span” value stood at 15 days and the “rotarod motor performance compared to saline-treated animals” value is on record as “significantly improves motor performance; also recorded: performed significantly better”. Besides, in the data set with hSOD1^G93A mice [5] (n=14), the “age at disease onset (peak body weight)” value turned out to be 107.5 ± 1.8 days and the survival time was 138 ± 2.1 days. Further, in the data set on hSOD1^G93A mice [5] (onset = peak body weight), the “delay of onset of symptoms compared to controls” value came to 8 days. The “percentage of astrocytes with nuclear condensation and caspase-3 activation after DHPG, effect of peptide” value in data set [3] (TAT-BH4 0.5 μM 30 min pre-treatment, DHPG 100 μM 30 min, 24 hrs recovery) is “significantly reduced; also recorded: significant reduction”.
